Laboratory results from article PMC5063506, “A Novel Class of Small Molecule Agonists with Preference for Human over Mouse TLR4 Activation” (PLoS ONE, 2016).

Legend:
mouse TLR4/MD2 = target: T1, mouse TLR4/MD2 (Mus musculus, UniProt Q9JHF9+Q9QUK6); assay: mTLR4/MD2-HEK293 transfectant SEAP (QUANTI-Blue) dose response, AUC; format: cell-based; details: 1 μg/ml to 4 ng/ml, 24 h, SEAP OD 650 nm vs log concentration
T1 construct: host or cells: HEK293
T1 sequence (Q9QUK6 26-835): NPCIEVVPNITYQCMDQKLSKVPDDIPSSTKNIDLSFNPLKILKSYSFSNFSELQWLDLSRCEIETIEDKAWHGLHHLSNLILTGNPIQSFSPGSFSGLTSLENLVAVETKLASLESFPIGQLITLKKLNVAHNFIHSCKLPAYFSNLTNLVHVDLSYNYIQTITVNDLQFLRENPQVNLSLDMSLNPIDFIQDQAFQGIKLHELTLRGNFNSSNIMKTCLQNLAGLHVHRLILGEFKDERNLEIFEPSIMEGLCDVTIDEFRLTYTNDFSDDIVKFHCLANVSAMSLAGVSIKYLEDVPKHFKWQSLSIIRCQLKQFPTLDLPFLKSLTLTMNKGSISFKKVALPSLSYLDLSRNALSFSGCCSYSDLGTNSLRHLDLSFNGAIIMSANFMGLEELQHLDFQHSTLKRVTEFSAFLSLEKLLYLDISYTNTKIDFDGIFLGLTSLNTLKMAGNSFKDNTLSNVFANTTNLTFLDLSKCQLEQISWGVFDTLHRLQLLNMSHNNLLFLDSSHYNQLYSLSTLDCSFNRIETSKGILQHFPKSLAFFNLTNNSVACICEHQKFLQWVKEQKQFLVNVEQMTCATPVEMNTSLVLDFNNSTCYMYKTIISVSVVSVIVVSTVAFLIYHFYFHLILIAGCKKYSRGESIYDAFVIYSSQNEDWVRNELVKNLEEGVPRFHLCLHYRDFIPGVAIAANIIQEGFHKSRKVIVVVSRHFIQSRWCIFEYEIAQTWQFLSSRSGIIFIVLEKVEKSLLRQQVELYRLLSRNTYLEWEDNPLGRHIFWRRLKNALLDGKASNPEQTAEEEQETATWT
T1 sequence (Q9JHF9 19-160): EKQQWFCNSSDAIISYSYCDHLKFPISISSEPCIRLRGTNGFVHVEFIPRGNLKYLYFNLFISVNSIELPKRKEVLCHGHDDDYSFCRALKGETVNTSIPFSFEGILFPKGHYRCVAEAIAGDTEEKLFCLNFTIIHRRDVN
Method: Cells were seeded in tissue culture treated clear flat bottom polystyrene 96 well plates (Costar, 3598) at 1e4 cells/well. Concentration-response curves were generated by addition of test compounds and incubation for 20 h at 37°C in an atmosphere of 5% CO2. LPS (E. coli 0111:B4, Ultra-pure, Invivogen) or PHAD (Avanti Polar Lipids) was used as a positive control. The SEAP released was quantified using p nitrophenyl phosphate as a substrate, and the absorbance at 405 nm was measured at 30 second intervals over several minutes using a microplate reader. Some data are recorded as the pEC50, the negative log of the EC50 value. Other data generated from these reporter cell lines were converted to AUC (area under the curve) values by interpolation of fitted cubic spline curve between OD value and log concentration levels. The calculation is performed using MESS package in statistical software R (www.r-project.org/).
Fig 4 Ugi compounds preferentially activate TLR4-HEK transfectants expressing human MD2. A-B) HEK293 cells transfected with human TLR4/MD2 or mouse TLR4/MD2 (InVivogen) were stimulated with TLR4 agonists including MPL, PHAD, and Ugi compounds at 1 μg/ml to 4 ng/ml and with LPS at 25 ng/ml to 64 pg/ml for 24 h. SNs were analyzed for SEAP content by the QUANTI-Blue assay (InVivogen) and analysis at 650 nm by spectrophotometer. AUC (area under the curve) values were calculated as in Methods. No AUC value was calculated for LPS since it was utilized with a different dose range. C) HEK transfectants with cis- or trans-species expression of TLR4, MD2, and CD14 were stimulated with Ugi compounds in a dose response range of 9 μM to 1 nM or with LPS (boxes) at 75 ng/ml to 5 pg/ml for 48 h. Data was obtained as Vmax calculated over the initial linear portion of the kinetic absorbance measurements. The AUC (area under the curve) value for the dose response curve of Vmax vs log10 (molar units) was calculated for each compound using Trapezoidal rule. TEXT PRINTED IN THE PICTURE: (A) MPL: hTLR4-HEK AUC: 0.55 | (A) AZ617: hTLR4-HEK AUC: 5.90 | (A) AZ618: hTLR4-HEK AUC: 6.56 | (A) AZ839: hTLR4-HEK AUC: 6.00 | (A) AZ161: hTLR4-HEK AUC: 5.54 | (A) AZ902: hTLR4-HEK AUC: 7.04 | (A) GLA: hTLR4-HEK AUC: 3.75 | (B) MPL: mTLR4-HEK AUC: 13.27 | (B) AZ617: mTLR4-HEK AUC: 0.89 | (B) AZ618: mTLR4-HEK AUC: 1.03 | (B) AZ839: mTLR4-HEK AUC: 0.93 | (B) AZ161: mTLR4-HEK AUC: 0.99 | (B) AZ902: mTLR4-HEK AUC: 1.55 | (B) GLA: mTLR4-HEK AUC: 14.24

[1] = LogD, octanol/water distribution coefficient; format: physicochemical; details: pH 7.4; octanol/water distribution coefficient at pH7.4
Source text: Fig 2 Optimization stages of Ugi products as TLR4 agonists. *Human TLR-4 NFκB SEAP reporter assays; protocol as described in Methods. Data are reported as pEC50, or negative log of the EC50 values. **Clint rh / hm represents intrinsic clearance in presence of rat hepatocytes (μL/min/10^6 cells) and human microsomes (μL/min/mg protein). […] Thus a drug molecule with LogD >4 might be considered to be very lipophilic and therefore more likely to suffer from rapid metabolic turnover, poor solubility and receptor promiscuity; whereas a LogD range of 1–3 is more likely to be associated with optimal physicochemical and drug-like properties. ^††Solubility was measured by dissolution of solid samples in buffer at pH 7.4.

mTLR4-HEK AUC (mouse TLR4/MD2)	logD [1]	SMILES
0.99	3.2	Cc1ccc(N(C(=O)c2cc(-c3ccccc3)n(-c3ccccc3)n2)C(C(=O)NC2CCCC2)c2ccc(CC(=O)O)cc2)cc1Cl (stereo not shown) [AZ161]
0.89	2.85	O=C(O)Cc1ccc(C(C(=O)NC2CCCC2)N(C(=O)c2cc(-c3ccccc3)n(-c3ccccc3)n2)c2ccc3c(c2)CCC3)cc1 (stereo not shown) [AZ617]
1.03	–	Cc1cc(C)cc(N(C(=O)c2cc(-c3ccccc3)n(-c3ccccc3)n2)C(C(=O)NC2CCCC2)c2ccc(CC(=O)O)cc2)c1 (stereo not shown) [AZ618, 2-(4-(2-(cyclopentylamino)-1-(N-(3,5-dimethylphenyl)-1,5-diphenyl-1H-pyrazole-3-carboxamido)-2-oxoethyl)phenyl)acetic acid]
1.55	> 4.5	CC(C)(C)c1ccc(N(C(=O)c2cc(-c3ccccc3)n(-c3ccccc3)n2)C(C(=O)NC2CCCC2)c2ccc(CC(=O)O)cc2)cc1 (stereo not shown) [AZ902]
